# Data as given in PubChem BioAssay (NCI).
#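 Dose response: 5 concentrations. Exposure: 48 h. Format: 96-well plates. Endpoint: linear interpolation; highest concentration if not reached. Here, GI50 denotes the concentration required for 50% inhibition of growth. TGI denotes the concentration required for complete inhibition of growth.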
# What was measured:
# Experiment in all cases: NCI anticancer screen, dose series, 48 h
# DU-145 prostate = system: DU-145 prostate
# U251 CNS = system: U251 CNS
# OVCAR-3 ovarian = system: OVCAR-3 ovarian
# NCI-H522 lung = system: NCI-H522 lung
# IGROV1 ovarian = system: IGROV1 ovarian
# K-562 leukemia = system: K-562 leukemia
# KM12 colon = system: KM12 colon
# T-47D breast = system: T-47D breast
# SR leukemia = system: SR leukemia
# UACC-257 melanoma = system: UACC-257 melanoma
# LOX IMVI melanoma = system: LOX IMVI melanoma
# PC-3 prostate = system: PC-3 prostate
# SNB-75 CNS = system: SNB-75 CNS
# HCT-15 colon = system: HCT-15 colon
# HOP-62 NSCLC = system: HOP-62 NSCLC
# MCF7 breast = system: MCF7 breast
# NCI/ADR-RES ovarian = system: NCI/ADR-RES ovarian
# SK-MEL-5 melanoma = system: SK-MEL-5 melanoma
# SF-295 CNS = system: SF-295 CNS
# MALME-3M melanoma = system: MALME-3M melanoma
# HCC-2998 colon = system: HCC-2998 colon
# HL-60(TB) leukemia = system: HL-60(TB) leukemia
# NCI-H460 lung = system: NCI-H460 lung
# UACC-62 melanoma = system: UACC-62 melanoma
# CAKI-1 renal = system: CAKI-1 renal
# SK-MEL-28 melanoma = system: SK-MEL-28 melanoma
# A498 renal = system: A498 renal
# TK-10 renal = system: TK-10 renal
# MDA-MB-231 breast = system: MDA-MB-231 breast
# SK-OV-3 ovarian = system: SK-OV-3 ovarian
# CCRF-CEM leukemia = system: CCRF-CEM leukemia
# SK-MEL-2 melanoma = system: SK-MEL-2 melanoma
# NCI-H226 lung = system: NCI-H226 lung
# OVCAR-4 ovarian = system: OVCAR-4 ovarian
# RXF 393 renal = system: RXF 393 renal
# SNB-19 CNS = system: SNB-19 CNS
# EKVX NSCLC = system: EKVX NSCLC
# SN12C renal = system: SN12C renal
# OVCAR-5 ovarian = system: OVCAR-5 ovarian
# NCI-H23 lung = system: NCI-H23 lung
# RPMI-8226 leukemia = system: RPMI-8226 leukemia
# 786-0 renal = system: 786-0 renal
# HT29 colon = system: HT29 colon
# HOP-92 NSCLC = system: HOP-92 NSCLC
# COLO 205 colon = system: COLO 205 colon
# MDA-MB-435 = system: MDA-MB-435
# OVCAR-8 ovarian = system: OVCAR-8 ovarian
# SF-268 CNS = system: SF-268 CNS
# MOLT-4 leukemia = system: MOLT-4 leukemia
# SW-620 colon = system: SW-620 colon
# M14 melanoma = system: M14 melanoma
# HS 578T breast = system: HS 578T breast
# A549 NSCLC = system: A549 NSCLC
# SF-539 CNS = system: SF-539 CNS
# UO-31 renal = system: UO-31 renal
# ACHN renal = system: ACHN renal
# BT-549 breast = system: BT-549 breast
# HCT-116 colon = system: HCT-116 colon
smiles,measurement,setting,value
NCCOc1ncccc1/C=C1\c2ccccc2-c2ccc(F)cc21,GI50,DU-145 prostate,467 nM
same,TGI,DU-145 prostate,1890 nM
same,GI50,U251 CNS,525 nM
same,TGI,U251 CNS,1850 nM
same,GI50,OVCAR-3 ovarian,1630 nM
same,TGI,OVCAR-3 ovarian,3.11 µM
same,GI50,NCI-H522 lung,1130 nM
same,TGI,NCI-H522 lung,2760 nM
same,GI50,IGROV1 ovarian,1160 nM
same,TGI,IGROV1 ovarian,2470 nM
same,GI50,K-562 leukemia,994 nM
same,TGI,K-562 leukemia,3.39 µM
same,GI50,KM12 colon,1460 nM
same,TGI,KM12 colon,2980 nM
same,GI50,T-47D breast,687 nM
same,TGI,T-47D breast,2740 nM
same,GI50,SR leukemia,116 nM
same,TGI,SR leukemia,2940 nM
same,GI50,UACC-257 melanoma,1660 nM
same,TGI,UACC-257 melanoma,3.34 µM
same,GI50,LOX IMVI melanoma,598 nM
same,TGI,LOX IMVI melanoma,1980 nM
same,GI50,PC-3 prostate,1180 nM
same,TGI,PC-3 prostate,2620 nM
same,GI50,SNB-75 CNS,1100 nM
same,TGI,SNB-75 CNS,3.26 µM
same,GI50,HCT-15 colon,781 nM
same,TGI,HCT-15 colon,2320 nM
same,GI50,HOP-62 NSCLC,446 nM
same,TGI,HOP-62 NSCLC,1870 nM
same,GI50,MCF7 breast,379 nM
same,TGI,MCF7 breast,1680 nM
same,GI50,NCI/ADR-RES ovarian,1240 nM
same,TGI,NCI/ADR-RES ovarian,2710 nM
same,GI50,SK-MEL-5 melanoma,1360 nM
same,TGI,SK-MEL-5 melanoma,2680 nM
same,GI50,SF-295 CNS,462 nM
same,TGI,SF-295 CNS,1810 nM
same,GI50,MALME-3M melanoma,1240 nM
same,TGI,MALME-3M melanoma,2640 nM
same,GI50,HCC-2998 colon,1340 nM
same,TGI,HCC-2998 colon,2750 nM
same,GI50,HL-60(TB) leukemia,340 nM
same,TGI,HL-60(TB) leukemia,1300 nM
same,GI50,NCI-H460 lung,236 nM
same,TGI,NCI-H460 lung,1370 nM
same,GI50,UACC-62 melanoma,1040 nM
same,TGI,UACC-62 melanoma,2380 nM
same,GI50,CAKI-1 renal,461 nM
same,TGI,CAKI-1 renal,2000 nM
same,GI50,SK-MEL-28 melanoma,1620 nM
same,TGI,SK-MEL-28 melanoma,3.04 µM
same,GI50,A498 renal,1610 nM
same,TGI,A498 renal,4.77 µM
same,GI50,TK-10 renal,1370 nM
same,TGI,TK-10 renal,2850 nM
same,GI50,MDA-MB-231 breast,1430 nM
same,TGI,MDA-MB-231 breast,2940 nM
same,GI50,SK-OV-3 ovarian,1240 nM
same,TGI,SK-OV-3 ovarian,2910 nM
same,GI50,CCRF-CEM leukemia,316 nM
same,TGI,CCRF-CEM leukemia,2390 nM
same,GI50,SK-MEL-2 melanoma,1910 nM
same,TGI,SK-MEL-2 melanoma,3.76 µM
same,GI50,NCI-H226 lung,1000 nM
same,TGI,NCI-H226 lung,2530 nM
same,GI50,OVCAR-4 ovarian,1520 nM
same,TGI,OVCAR-4 ovarian,3.47 µM
same,GI50,RXF 393 renal,1600 nM
same,TGI,RXF 393 renal,3.66 µM
same,GI50,SNB-19 CNS,570 nM
same,TGI,SNB-19 CNS,2580 nM
same,GI50,EKVX NSCLC,1350 nM
same,TGI,EKVX NSCLC,3.55 µM
same,GI50,SN12C renal,449 nM
same,TGI,SN12C renal,1710 nM
same,GI50,OVCAR-5 ovarian,1570 nM
same,TGI,OVCAR-5 ovarian,3.07 µM
same,GI50,NCI-H23 lung,631 nM
same,TGI,NCI-H23 lung,2510 nM
same,GI50,RPMI-8226 leukemia,1470 nM
same,TGI,RPMI-8226 leukemia,3.51 µM
same,GI50,786-0 renal,575 nM
same,TGI,786-0 renal,1940 nM
same,GI50,HT29 colon,1190 nM
same,TGI,HT29 colon,2800 nM
same,GI50,HOP-92 NSCLC,353 nM
same,TGI,HOP-92 NSCLC,3.19 µM
same,GI50,COLO 205 colon,1050 nM
same,TGI,COLO 205 colon,2310 nM
same,GI50,MDA-MB-435,1550 nM
same,TGI,MDA-MB-435,2980 nM
same,GI50,OVCAR-8 ovarian,1080 nM
same,TGI,OVCAR-8 ovarian,2750 nM
same,GI50,SF-268 CNS,1080 nM
same,TGI,SF-268 CNS,4.1 µM
same,GI50,MOLT-4 leukemia,282 nM
same,TGI,MOLT-4 leukemia,1160 nM
same,GI50,SW-620 colon,682 nM
same,TGI,SW-620 colon,2170 nM
same,GI50,M14 melanoma,739 nM
same,TGI,M14 melanoma,2260 nM
same,GI50,HS 578T breast,1740 nM
same,TGI,HS 578T breast,5.02 µM
same,GI50,A549 NSCLC,311 nM
same,TGI,A549 NSCLC,1920 nM
same,GI50,SF-539 CNS,1490 nM
same,TGI,SF-539 CNS,2870 nM
same,GI50,UO-31 renal,1120 nM
same,TGI,UO-31 renal,2340 nM
same,GI50,ACHN renal,349 nM
same,TGI,ACHN renal,1370 nM
same,GI50,BT-549 breast,1640 nM
same,TGI,BT-549 breast,4.48 µM
same,GI50,HCT-116 colon,703 nM
same,TGI,HCT-116 colon,2120 nM
